Laboratory results published in the NIST ThermoML archive (doi:10.1016/j.fluid.2012.03.016).
Numbers after ± are expanded uncertainties.

Settings: Pendant drop shape

Which surface tension liquid-gas (294 K) does the source give for C/C=C(\C)C(=O)[O-].C[N+](C)(C)CCO here?
The surface tension liquid-gas was 31.6 ± 1.1 mN/m.

And the surface tension liquid-gas (303.9 K)?
The surface tension liquid-gas was 30.7 ± 1.1 mN/m.

What about the surface tension liquid-gas (314.2 K) of the same compound?
The surface tension liquid-gas was 30.7 ± 1.1 mN/m.

What about the surface tension liquid-gas (323.9 K) of the same compound?
The surface tension liquid-gas was 30.9 ± 1.1 mN/m.

What about the surface tension liquid-gas (333.5 K) of the same compound?
Its surface tension liquid-gas is 30.2 ± 1.1 mN/m.

And the surface tension liquid-gas (338 K)?
The surface tension liquid-gas was 29.8 ± 1.1 mN/m.

What about the surface tension liquid-gas (340.1 K) of the same compound?
The surface tension liquid-gas was 29.9 ± 1.1 mN/m.

What about the surface tension liquid-gas (346.2 K) of the same compound?
Its surface tension liquid-gas is 29.9 ± 1.1 mN/m.

What about the surface tension liquid-gas (348.2 K) of the same compound?
Its surface tension liquid-gas is 28.5 ± 1.1 mN/m.

What about the surface tension liquid-gas (357.4 K) of the same compound?
Its surface tension liquid-gas is 28 ± 1.1 mN/m.

What about the surface tension liquid-gas (362.5 K) of the same compound?
The surface tension liquid-gas was 28.2 ± 1.1 mN/m.

And the surface tension liquid-gas (373 K)?
The surface tension liquid-gas was 27.6 ± 1.1 mN/m.

And the surface tension liquid-gas (379.5 K)?
The surface tension liquid-gas was 26.1 ± 1.1 mN/m.

And the surface tension liquid-gas (391.8 K)?
The surface tension liquid-gas was 26.4 ± 1.1 mN/m.

With C[N+](C)(C)CCO.O=C([O-])CCC(=O)O [2-hydroxy-N,N,N-trimethylethanaminium 3-carboxypropanoate] as the compound, how does the surface tension liquid-gas (308.2 K) read?
Its surface tension liquid-gas is 40.7 ± 1.1 mN/m.

What about the surface tension liquid-gas (313.9 K) of the same compound?
Its surface tension liquid-gas is 40.4 ± 1.1 mN/m.

And the surface tension liquid-gas (319.2 K)?
The surface tension liquid-gas was 40.1 ± 1.1 mN/m.

What about the surface tension liquid-gas (324 K) of the same compound?
The surface tension liquid-gas was 39.5 ± 1.1 mN/m.

And the surface tension liquid-gas (328.5 K)?
The surface tension liquid-gas was 39.5 ± 1.1 mN/m.

What about the surface tension liquid-gas (333.6 K) of the same compound?
Its surface tension liquid-gas is 38.9 ± 1.1 mN/m.

And the surface tension liquid-gas (339.4 K)?
The surface tension liquid-gas was 38.4 ± 1.1 mN/m.

With CCC(=O)[O-].C[N+](C)(C)CCO [cholinium propanoate] as the compound, how does the surface tension liquid-gas (294 K) read?
Its surface tension liquid-gas is 34.6 ± 1.1 mN/m.

And the surface tension liquid-gas (302.6 K)?
Its surface tension liquid-gas is 33.3 ± 1.1 mN/m.

What about the surface tension liquid-gas (313.7 K) of the same compound?
The surface tension liquid-gas was 32.6 ± 1.1 mN/m.

And the surface tension liquid-gas (324.1 K)?
Its surface tension liquid-gas is 32.3 ± 1.1 mN/m.

And the surface tension liquid-gas (333.8 K)?
Its surface tension liquid-gas is 31.7 ± 1.1 mN/m.

What about the surface tension liquid-gas (343.4 K) of the same compound?
Its surface tension liquid-gas is 31.2 ± 1.1 mN/m.

And the surface tension liquid-gas (354.5 K)?
The surface tension liquid-gas was 30.9 ± 1.1 mN/m.

And the surface tension liquid-gas (373.4 K)?
The surface tension liquid-gas was 29.5 ± 1.1 mN/m.

And the surface tension liquid-gas (392.6 K)?
Its surface tension liquid-gas is 28.6 ± 1.1 mN/m.
